{"source": "patent US5814612A", "about": "“Retinol derivatives and uses thereof” (priority 1992, dated 1998)", "key": {"[1]": {"test_system": "thymocytes", "test": "Proliferation of anti-CD3 activated thymocytes in serum-free ITLB medium", "assay_type": "cell-based, BALB/c mouse", "description": "FIG. 14A: Purified BALB/c thymocytes were activated with immobilized anti-CD3e antibody and cultivated for four days in ITLB medium with or without retinol (3×10^-6 M), 14HRR (6×10^-7 M) (fresh 14HRR was added every 12 hours), human serum (3%) or FCS (10%) at the cellular densities shown. Proliferation was assayed by tritiated thymidine incorporation into cellular DNA.\nFIG. 14B: BALB/c thymocytes (10^6 /ml) were added to microtiter plates coated with titrated amounts of anti-CD3e antibody with […] retinol or without, as indicated. Proliferation was measured in hexaduplicate wells on day 3 by ^3 H thymidine incorporation assay.\nPurified thymocytes (5×10^5 cells/well) were stimulated by TCR crosslinking with immobilized anti-CD3e antibody (FIG. 15A) or 0.4 μg/ml Con A (FIG. 15B) in serum-free ITLB medium. The indicated amounts of retinoids were added either once at the beginning of the experiment (marked as \"1×\") or every 12 hours thereafter (marked as \"6×\"). DNA synthesis was measured after 72 hours by tritiated thymidine uptake as described.\nPurified thymocytes (10^5 cells/well) were activated with anti-CD3 antibody in ITLB medium with or without retinol (3×10^-6 M), 14HRR (6×10^-7, added every 12 hours or human serum (3%)). DNA synthesis was measured daily by a 4 hour pulse of tritiated thymidine.\nThymocytes (5×10^4 /well) were activated by immobilized anti-CD3 mAb in medium ITLB. Retinol (2×10^-6 M) was added at initiation of culture, or delayed by 12 hours and 24 hours, respectively, or omitted altogether. ^3 H thymidine pulses of 4 hours were used to measure DNA synthesis of hexaduplicate wells.\nThymuses of 3 to 6-week-old BALB/c mice were teased in serum-free RPMI medium supplemented with 1% BSA, 10^-6 M linoleic acid and antibiotics. Depletion of accessory cells was achieved by two cycles of complement-dependent lysis with a mixture of anti-IA^d (5 μg/ml) and anti-IE^d (1:500 diluted ascites fluid). Briefly, cells were incubated on ice for 30 minutes with Ia antibodies, spun down, resuspended in 1:40 diluted rabbit complement, and incubated at 37° C. for 45 minutes. Incubations and two subsequent washes were carried out with RPMI medium containing 1% BSA. Cell viability was evaluated by trypan blue dye exclusion. To determine the extent of depletion of accessory cells, samples were stained with FITC-conjugated anti-Fc receptor antibody and analyzed by flow cytometry on a FACScan instrument (Becton Dickinson).\nCells were cultured in serum-free medium, referred to as ITLB, containing RPMI 1640 supplemented with 8×10^-7 M insulin (5 μg/ml), 7×10^-8 M transferrin (5 μg/ml), 2×10^-6 M linoleic acid, 2×10^-6 M delipidated BSA (0.12 mg/ml), 2 mM L-glutamine, 1 mM sodium pyruvate and antibiotics. They were seeded into 96-well flat-bottom plates at varying cellular densities in a final volume of 100 μl. In control experiments, cells were cultured in medium containing 10% FCS or 3% human serum and 5×10^-5 M 2ME. T cells and thymocytes were activated with immobilized, purified anti-mAb CD3e or by the addition of Con A in the presence or absence of different concentrations of retinoids. Unless indicated otherwise, retinoids were replenished every 12 hours to maintain a reasonably constant concentration of these labile compounds in culture. […] Cultures were carried out in duplicate. Plates were incubated at 37° C. in a humidified 5% CO2 atmosphere. Cellular proliferation was determined by [^3 H] thymidine uptake (0.5 uCi/well; New England Nuclear, Boston, Mass.) after the incubation times indicated for each experiment with a 4 hour labeling pulse."}, "[2]": {"test_system": "lymph node T cells", "test": "Proliferation of anti-CD3 activated lymph node T cells", "assay_type": "cell-based, BALB/c mouse", "from_the_text": "(§1) Growth curves of lymph node T cells depleted of antigen-presenting cells (FIG. 17A) with and without 10^-6 M retinol at 2×10^5 and 5×10^4 cells/well. (FIG. 17B) Dose-responses elicited by different retinoids in cultures of lymph node T cells depleted of antigen-presenting cells. Also shown are the growth curves of CD4^+ (FIG. 17C) and CD8^+ T lymphocytes (FIG. 17D) in the presence of either retinol, 14HRR, human serum or in their absence.\n(§2) T lymphocytes, purified as described, 5×10^4 /well, were activated with immobilized anti-CD3 antibody in ITLB medium. The indicated amounts of retinoids or human serum were added at initiation of cultures. […] 14HRR was added every 12 hours. DNA synthesis was measured by a 4 hour pulse with tritiated thymidine. SDs were ≤17%.\n(§3) Mature T cells were obtained from pooled intestinal, axillary, inguinal and submandibular lymph nodes of 4 to 10-week-old BALB/c mice. To fractionate cells into CD4 and CD8 subsets and at the same time remove APC, a combination of adherence and complement lysis was used as follows:\n(§4) The cell suspension in a volume of 2 ml was applied to a nylon wool column (40) (0.6 g of washed nylon fibers in the barrel of a 10 ml syringe) and incubated at 37° C. for 40 min. […] The success of the enrichment procedures was monitored cytofluorimetrically using FITC-conjugated anti-CD8 and PE-conjugated anti-CD4. […]\nCells were cultured in serum-free medium, referred to as ITLB, containing RPMI 1640 supplemented with 8×10^-7 M insulin (5 μg/ml), 7×10^-8 M transferrin (5 μg/ml), 2×10^-6 M linoleic acid, 2×10^-6 M delipidated BSA (0.12 mg/ml), 2 mM L-glutamine, 1 mM sodium pyruvate and antibiotics. […] The optimal concentration for stimulation of T cells was determined for each batch of anti-CD3 mAb and Con A. The optimal range of Con A was particularly narrow in serum-free medium (0.5-0.2 μg/ml) and varied with the cell density used. […] Cellular proliferation was determined by [^3 H] thymidine uptake (0.5 uCi/well; New England Nuclear, Boston, Mass.) after the incubation times indicated for each experiment with a 4 hour labeling pulse. […]"}, "[3]": {"test_system": "CD4^+ T lymphocytes", "test": "Proliferation of anti-CD3 activated CD4+ T lymphocytes", "assay_type": "cell-based, BALB/c mouse", "from_the_text": "as §1, §2, §3, §4"}, "[4]": {"test_system": "CD8^+ T lymphocytes", "test": "Proliferation of anti-CD3 plus IL-2 activated CD8+ T lymphocytes", "assay_type": "cell-based, BALB/c mouse", "from_the_text": "as §1, §2, §3, §4"}, "[5]": {"test_system": "T cells", "test": "T cell activation and proliferation, retinol cofactor requirement", "assay_type": "cell-based, murine", "description": "They were seeded into 96-well flat-bottom plates at varying cellular densities in a final volume of 100 μl. In control experiments, cells were cultured in medium containing 10% FCS or 3% human serum and 5×10^-5 M 2ME. […] Cultures were carried out in duplicate. Plates were incubated at 37° C. in a humidified 5% CO2 atmosphere. Cellular proliferation was determined by [^3 H] thymidine uptake (0.5 uCi/well; New England Nuclear, Boston, Mass.) after the incubation times indicated for each experiment with a 4 hour labeling pulse. Cells were harvested onto glass filter and [^3 H]TdR incorporation was determined by liquid scintillation counting. The data presented are the means of duplicate or six replicate cultures. The restriction to duplicate measurements was necessary to conserve scarce 14HRR. […] Each experiment was repeated at least twice."}, "[6]": {"test_system": "lymphoblastoid cells (LCL)", "settings": "cited from earlier work"}, "[7]": {"test_system": "activated human thymocytes", "settings": "cited from earlier work"}, "[8]": {"test_system": "B lymphocytes", "settings": "previous analyses with B lymphocytes (ref. 33); cited from earlier work"}, "[9]": {"test_system": "5/2 cells", "assay_type": "in vitro ADME, human", "description": "5/2 cells (10^6 cells in 10 ml HB 101 medium) were incubated with all-trans-[^3 H] retinol (10 uCe/ml). After 24 hours, retinoids were extracted from the washed cell pellet and unlabeled marker retinoids were added. The crude extract was loaded on an analytical reversed-phase C-18 column. Retinoids were eluted with the shown linear gradient of water/methanol/chloroform. The flow rate was 0.5 ml/min. DPM were determined with an on line scintillation counter. Reference retinoids were the all-trans forms of 0: 3,4-didehydroretinoic acid, 1: all-trans-retinoic acid, 2: 3,4-didehydroretinol, 3: retinol, 4: retinyl linoleate, 5: retinyl oleate, 6: retinyl palmitate. Shaded area corresponds to P3. Cross-hatched area corresponds to P1.\nLymphoblastoid 5/2 cells grown in the presence of 10^-6 M retinol were spiked with ^3 H-labeled retinol. After 16 hours the cell pellet was delipidated according to the method of McLean et al. and separated on a reversed phase C-18 HPLC column (FIG. 7). […] Three peaks, P1, P2 and P3, could not be immediately identified. One peak eluting at 36-39 minutes (corresponding 83% methanol 7% water) provisionally called P3, but now known as 14HRR, was unusual because unlike P1 eluting at 31-34 minutes, its relative amount increased when the retinol concentration was lowered or when retinol was given to the cells bound to RBP. […] Since HeLa cells contain 14HRR, these cells were also used. 50 ml of packed HeLa cells (10^10 cells) yielded 25 OD348nmunits of pure P3 after the following sequence of steps: 1. Growth in the presence of 10^-5 M retinol; 2. Extraction of cell pellet according to McClean et al. (13); 3. Preparative C-18 HPLC column eluted with a water/methanol gradient; 4. semipreparative C18 HPLC column eluted with a water/acetonitrile gradient; 5. analytical C4 column eluted with a water/methanol gradient."}}, "data": [{"smiles": "CC1=C(/C=C/C(C)=C/C=C/C(C)=C/C=O)C(C)(C)CCC1", "note": "[all-trans retinal]", "values": [{"measurement": "effect of delayed addition", "setting": "[1]; addition delayed by 24 hours", "result": "complete failure of activation"}, {"measurement": "effectiveness relative to retinol", "setting": "[1]; anti-CD3, 14HRR at 12 hour intervals", "result": "equally effective as all-trans retinol"}, {"measurement": "optimally effective dose", "setting": "[1]; given once in a 3-day culture", "result": 2, "unit": "µM"}, {"measurement": "optimally effective dose", "setting": "[1]; provided at 12 hour intervals", "result": 0.2, "unit": "µM"}, {"measurement": "stimulation of lymph node T cells", "setting": "[2]", "result": "dependent on the presence of retinal"}, {"measurement": "response of CD4+ subset to anti-CD3", "setting": "[3]", "result": "responded to the activating signal"}, {"measurement": "response of CD8+ subset to anti-CD3 plus IL-2", "setting": "[4]", "result": "responded to the activating signal"}, {"measurement": "ability to substitute for retinol in T cell activation (words)", "setting": "[5]", "result": "can substitute for retinal"}, {"measurement": "support of growth of LCL in serum-free medium", "setting": "[6]", "result": "support the growth of LCL in serum-free medium"}, {"measurement": "support of growth of activated human thymocytes", "setting": "[7]", "result": "The same is true for activated human thymocytes"}, {"measurement": "active concentration", "setting": "[8]", "result": 200, "unit": "nM"}]}, {"smiles": "CC1=C(/C=C/C(C)=C/C=C/C(C)=C/C(=O)O)C(C)(C)CC=C1", "note": "[3,4-didehydroretinol acid, 3,4-didehydroretinoic acid]", "values": [{"measurement": "detection as metabolite of retinol", "setting": "[9]", "result": "not detectable"}]}, {"smiles": "CC1=C(/C=C/C(C)=C/C=C/C(C)=C/CO)C(C)(C)CC=C1", "note": "[3,4-didehydroretinol]", "values": [{"measurement": "detection as metabolite of retinol", "setting": "[9]", "result": "not detectable"}]}]}
